From patent US10781203B2, “Nontoxic compounds for the treatment and prevention of herpesvirus infections” (The Penn State Research Foundation, priority 2016, dated 2020) come the findings set out here.

The target in series [1] is T1, STX5 (Homo sapiens, UniProt Q13190).
T1 construct: immunofluorescence detection of STX5 in uninfected (Mock) and HCMV-infected cells (96 hpi) in the presence of DMSO control or Retro94; endogenous in cells; host or cells: uninfected (mock) or HCMV-infected cells
T1 sequence (Q13190 1-355): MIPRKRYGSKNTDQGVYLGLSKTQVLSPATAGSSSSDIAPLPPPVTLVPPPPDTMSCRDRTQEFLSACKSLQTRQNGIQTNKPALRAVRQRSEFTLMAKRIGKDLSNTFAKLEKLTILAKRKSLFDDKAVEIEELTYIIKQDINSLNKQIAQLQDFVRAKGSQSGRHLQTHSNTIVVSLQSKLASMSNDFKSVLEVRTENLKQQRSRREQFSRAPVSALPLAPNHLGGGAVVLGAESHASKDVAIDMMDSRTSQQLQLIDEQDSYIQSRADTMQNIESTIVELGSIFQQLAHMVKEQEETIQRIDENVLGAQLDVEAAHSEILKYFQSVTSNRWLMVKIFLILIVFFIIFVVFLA
Nature of the series: Immunofluorescence detection of STX5 localization. Format: cell-based. As to the method: Coverslips or chamber slides containing either uninfected or HCMV-infected cells were washed in phosphate-buffered saline (PBS) and fixed in 2% paraformaldehyde for 15 min at room temperature. Cells were blocked in PBS containing 10% human serum, 0.5% Tween-20, and 5% glycine. 0.1% Triton-X 100 was added for permeabilization. Primary and secondary antibodies as specified in the antibody section were diluted in blocking buffer. Nuclei were stained with DAPI prior to mounting with ProLong Diamond Antifade Mountant (ThermoScientific). For live-cell experiments using the pp28-mCherry virus, cells were grown on glass bottom microwell dishes (MatTek Corporation) and nuclei were stained with NucBlue Live Cell Stain ReadyProbes reagent (ThermoScientific). All images were acquired using a C2+ Confocal Microscope System (Nikon). Images were processed using NIS elements software. Images shown are volume renderings of Z-stacks.

Series [2] relates to MCMV. Nature of the series: Viral titers of MCMV-infected fibroblasts. Format: cell-based, mouse. The following applies: treated at 2 hpi; 6 dpi (FIG. 7C). As to the method:
(§1) FIG. 7A is a graph showing viral titers at 15 dpi of fibroblasts infected with various strains of HCMV (MOI=0.05) and treated with DMSO or Retro94 at 2 hpi. Media was changed and fresh Retro94 was added at 6 dpi. Bright field images representing CPE of above infections shown at right. FIG. 7B show HCMV-infected ARPE-19 cells (TB40, MOI=3) at 21 dpi treated with DMSO or Retro94 ([…]). Infected cells detected by monitoring mCherry (red) expressed by TB40 virus. Scale bars: 1 mm. The table below images show number of foci detected, average area and standard error of the mean. P<0.00001. […]
(§2) For MCMV growth curve analysis, samples were titrated on NIH 3T3 cells and titers were calculated using the 50% tissue culture infective dose method. Both HCMV virus stocks and samples for growth curves were titrated by serial dilutions on MRC5 cells and quantified by the immunological detection of immediate-early proteins as previously described (Britt W J. Human cytomegalovirus: propagation, quantification, and storage. Curr Protoc Microbiol. 2010; Chapter 14: Unit 14E.3). The numbers of stained nuclei were acquired on a Nikon Eclipse Ti Inverted microscope and fluorescent nuclei were quantified using the NIS Elements Software. […] The number and size of foci were quantified using NIS Elements software.

Series [3] relates to cells. Nature of the series: Cell viability after extended treatment (trypan blue, bright field). Format: cell-based. The source says:
FIG. 3A is a growth curve analysis of HCMV (MOI=3) in untreated (WT), vehicle treated (DMSO) or Retro94-treated cells. Samples were harvested at 24, 48, 72, 96, 120 and 144 hpi. […] Nuclei labeled with DAPI (blue). Scale bars: 10 μm. FIG. 3C is a growth curve analysis of HCMV (MOI=0.05) in DMSO control (DMSO) or Retro94-treated cells. Samples were harvested at 3, 6, 9, 12 and 15 dpi. Asterisks indicate change of media with fresh Retro94. […] Bright field images of cell monolayers at 4 days post treatment are shown below graph. Brefeldin A was included as a positive control for cell death. Values in FIGS. 3A and 3C are from one representative experiment.
Normal human dermal fibroblasts, HDFs (Cell Applications Inc. 106-05N), and normal human lung fibroblasts, MRC-5 cells (ATCC CCL-171) were maintained in Dulbecco's modified Eagle's medium (DMEM) (Lonza). Human retinal pigmented epithelial cells (ARPE-19), maintained in DMEM/Ham's F12 (1:1 mix) (Lonza), human embryonic lung fibroblasts (HEL) and mouse embryonic fibroblasts (NIH 3T3), maintained in DMEM (Lonza) were obtained (Spector D J, Yetming K. Virology. 2010; 407(2):171-7; Spector D J. Virology. 2015, 476:345-54). All media was supplemented with 10% fetal bovine serum, 100 U/ml penicillin and 100 µg/ml streptomycin, and 2 mM GlutaMAX (Gibco). Cells were maintained at 37° C. with 5% CO2. […]

The test system of series [4] is Towne, TB40, Merlin and Toledo strains of HCMV. The series is described as follows: Viral titers of fibroblasts infected with various strains of HCMV. Format: cell-based, Human cytomegalovirus (HCMV). The following applies: all four strains; MOI=0.05; treated at 2 hpi; 15 dpi. How it is done: as §1, §2
Series [5] has as its system HCMV-infected ARPE-19 cells (TB40). Nature of the series: Spread of HCMV TB40-mCherry in ARPE-19 cells (viral foci area). Format: cell-based, Human cytomegalovirus (HCMV). The conditions noted are these: TB40-mCherry MOI=3, 10 μM, three weeks after infection. As to the method: as §1, §2

Turning to `Cc1nc(-c2ccc(C3N(C)c4ccccc4C(=O)N3c3ccccc3)s2)cs1` (stereo not drawn) [Retro94, 1-Methyl-2-(5-(2-methylthiazol-4-yl)thiophen-2-yl)-3phenyl-2,3-dihydroquinazolin-4(1H)-one], the STX5 localization entry was “dispersed throughout the cell and was not located to the cVAC ring” in series [1] (HCMV-infected cells, 96 hpi); “lost its Golgi-localization” in series [1] (uninfected cells). In series [2], the “decrease of MCMV titer” value is listed as roughly 3 logs. For the same molecule, the “effect on cell viability or cell morphology” value in series [3] is “no effect”. For the same molecule, in series [4], the “viral titers lower in the presence of compound” value is reported as “two to three”. In addition, the “area of viral centers, DMSO treated versus compound treated cells” value in series [5] is “more than twice”.
